Data taken from patent US8106190B2, “2-aminobenzamide derivatives” (Astellas Pharma Inc., priority 2005, dated 2012).
pIC50: −log10 of the molar value. Counter-ions that a name gives are not always drawn.

Legend:
mouse (ddY, male) = assay: Capsaicin test (capsaicin-induced paw-licking behavior); type: in vivo; settings: oral administration 45 minutes before 1.6 μg capsaicin to planta; 5 minutes observation; vehicle group = 100%
Procedure: Inhibitory action on pain behavior of the compounds as the active ingredients of the pharmaceutical preparations of the present invention was evaluated in accordance with the method described in a reference [Neuropharmacol., 31: 1279-1285 (1992)]. That is, when 1.6 μg of capsaicin is administered to a planta of a mouse (ddY, male, 4 to 5 weeks of age), it induces paw-licking behavior. The pain behavior suppressing action was evaluated by measuring the paw-licking behavior expressing time during 5 minutes after the administration. Each test compound was orally administered 45 minutes before the administration of capsaicin. Evaluation of the test compounds was carried out by calculating each inhibition rate of the test compound administration group when the paw-licking behavior expressing time of the vehicle administration group was regarded as 100%.

human VR1 [1] = biological target: T1, human VR1 (Homo sapiens, UniProt Q8NER1); assay: Receptor binding assay ([3H]RTX) using membrane of human VR1 stably expressing HEK 293 cell; settings: [3H]RTX binding, VR1/HEK 293 membrane sample, 37° C. 60 minutes; read-out: VR1 receptor binding inhibitory activity, IC50 value
T1 construct: A complete length cDNA coding for human VR1 was obtained; expressed in transfected cells
T1 sequence (Q8NER1 whole entry): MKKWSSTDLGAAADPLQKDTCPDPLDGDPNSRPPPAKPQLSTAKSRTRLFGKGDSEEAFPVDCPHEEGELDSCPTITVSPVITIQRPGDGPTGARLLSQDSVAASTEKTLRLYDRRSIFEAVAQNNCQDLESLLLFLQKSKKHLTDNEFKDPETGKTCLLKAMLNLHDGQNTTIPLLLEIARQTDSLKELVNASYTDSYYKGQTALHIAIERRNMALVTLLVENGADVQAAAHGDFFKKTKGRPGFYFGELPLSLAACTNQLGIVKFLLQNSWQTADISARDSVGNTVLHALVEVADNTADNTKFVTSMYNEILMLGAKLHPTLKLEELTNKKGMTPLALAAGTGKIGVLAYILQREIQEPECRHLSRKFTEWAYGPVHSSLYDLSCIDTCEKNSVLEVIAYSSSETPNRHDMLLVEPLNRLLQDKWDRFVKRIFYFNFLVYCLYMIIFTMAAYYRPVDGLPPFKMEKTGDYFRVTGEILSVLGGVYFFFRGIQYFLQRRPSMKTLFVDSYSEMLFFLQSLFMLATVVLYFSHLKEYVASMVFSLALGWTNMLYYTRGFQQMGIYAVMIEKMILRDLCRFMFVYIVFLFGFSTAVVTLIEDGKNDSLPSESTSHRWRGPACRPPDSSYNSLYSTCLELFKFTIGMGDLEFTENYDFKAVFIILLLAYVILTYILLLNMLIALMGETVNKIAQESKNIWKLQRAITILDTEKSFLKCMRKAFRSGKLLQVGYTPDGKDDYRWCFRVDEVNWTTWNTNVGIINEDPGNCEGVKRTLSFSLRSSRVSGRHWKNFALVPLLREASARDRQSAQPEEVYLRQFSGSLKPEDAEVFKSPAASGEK
Procedure: 1. Receptor Binding Assay Using VR1 Stably Expressing Cell
1) Construction of Human VR1 Stably Expressing Cell
A complete length cDNA coding for human VR1 was obtained by the following method. Firstly, a first strand cDNA was synthesized by carrying out reverse transcription of human brain mRNA using a reverse transcriptase. Next, PCR by Hot Start method was carried out using this first strand cDNA as the template and using Taq DNA polymerase. In the aforementioned PCR, an oligonucleotide consisting of the 424th to 443rd nucleotide sequence of a conventionally known human VR1 cDNA sequence (Genbank AJ277028.1) was used as the sense primer, and an oligonucleotide consisting of a complementary chain sequence of the 3082nd to 3100th nucleotide sequence as the antisense primer, and thermal denaturation was firstly carried out at 98° C. (1 minute) and then a cycle consisting of 98° C. (15 seconds)/63° C. (30 seconds)/72° C. (3 minutes) was repeated 35 times.
Cloning of the thus amplified DNA fragment was carried out using pCR-XL-TOPO vector (TOPO XL PCR Cloning Kit; Invitrogen, USA). The human VR1-cDNA alone was isolated by digesting the resulting plasmid DNA with a restriction enzyme EcoRI and then integrated into pcDNA3.1 (+) plasmid (Invitrogen, USA). In this case, the above genetic engineering operations were carried out by conventionally known methods (Sambrook, J. et al., “Molecular Cloning—A Laboratory Manual”, Cold Spring Harbor Laboratory Press, NY, 2001) and in accordance with the instructions attached to respective reagents.
Next, the resulting pcDNA3.1-VR1 was transferred into HEK 293 cell. By selecting VR1/HEK 293 cells using DMEM medium (Invitrogen, USA) containing 10% FBS, 100 μg/ml streptomycin, 100 U/ml penicillin and 400 μg/ml G 418, a receptor stably expressing cell strain was prepared. The receptor stably expressing cell was sub-cultured in the medium described in the above.
2) Preparation of Membrane Sample
The VR1/HEK 293 cell described in the above was mass-produced in a dish and then, after discarding the medium, scraped out after adding ice-cooled PBS. Centrifugation was carried out at 1000 rpm and at 4° C. for 10 minutes, and the resulting residue was homogenized by adding a homogenization buffer (25 mM Tris-HCl, 220 mM sucrose, pH 7.4) and centrifuged at 2,200 rpm and at 4° C. for 10 minutes. The resulting supernatant was centrifuged at 30,000×g and at 4° C. for 20 minutes and the resulting residue was mixed with 25 mM Tris-HCl, pH 7.4, and centrifuged at 30,000×g and at 4° C. for 20 minutes, and this operation was repeated twice. The resulting residue was suspended in 25 mM Tris-HCl, pH 7.4, and the protein concentration was determined using a protein assay staining solution (Bio-Rad, USA). The thus prepared membrane sample was stored at −80° C.
3) Receptor Binding Assay
This was carried out by modifying the method of [Neurosci., 57: 747-757 (1993)]. As the assay buffer, 25 mM Tris-HCl, 0.025% BSA, pH 7.4 was used. Each test compound, [^3H]RTX 50 μl (about 50,000 dpm; Perkin Elmer Life Science, USA) and the aforementioned membrane sample (protein quantity about 25 μg) were suspended in a microplate to a total volume of 300 μl, incubated at 37° C. for 60 minutes and then incubated on ice for 10 minutes. A 200 μg/50 μl portion of an ice-cooled α1 acid glycoprotein (AGP; Sigma) was added thereto and further incubated for 5 minutes. Completion of the incubation was carried out by rapid filtration of the reaction liquid using a GF/B filter (Perkin Elmer Life Science, USA). After 7 times of washing with ice-cooled 25 mM Tris-HCl buffer (pH 7.4), radioactivity of the filter was measured by a liquid scintillation counter. Regarding the specific binding, a part substituted by 1 μM of RTX among the total binding of [^3H]RTX with the VR1 receptor stably expressing cell membrane fraction was regarded as the specific binding originated from the VR1 receptor. Evaluation of test compounds was carried out in the following manner. […]

rat (SD, male) = assay: Spinal nerve ligation model test (von Frey hair test); type: in vivo; settings: L5/L6 spinal nerve ligated rat, oral administration 60 minutes before evaluation
Procedure: 4. Spinal Nerve Ligation Model Test
Inhibitory action on pain behavior of the compounds as the active ingredients of the pharmaceutical preparations of the present invention was evaluated in accordance with the method described in a reference [Pain, 50: 355-363 (1992)]. Under pentobarbital anesthesia, the lumbar skin and muscle of a rat (SD, male, 5 to 6 weeks of age) were incised and the lumber nerve was exposed by removing the transverse process of lumbar vertebra L 6. The L 5 and L 6 spinal nerves were ligated with a silk thread and then the wound was sutured. The treatment was applied to the left side.
The drug effect evaluation was carried out after 7 to 15 days of the operation. Pain threshold for mechanical stimulus was examined by the von Frey hair (VFH) test.
Individuals having lowered pain threshold were selected in advance by the VFH test on the day before the drug effect evaluation and divided into groups in such a manner that difference in the average threshold value between respective groups becomes small.
The test compounds were orally administered 60 minutes before the drug effect evaluation. […]

human VR1 [2] = biological target: T1, human VR1; assay: Inhibitory activity on capsaicin-induced electric current, whole cell patch clamp, VR1 receptor-expressed HEK 293 cells; type: cell-based; settings: capsaicin 1 μM, voltage-clamped, read-out: IC50 value, inhibition of capsaicin-induced current response
Procedure: 2. Measurement of Inhibitory Activity on Capsaicin-Induced Electric Current Using VR1 Stably Expressing Cell
The VR1 receptor-expressed HEK 293 cells prepared in the aforementioned Test Example 1 were inoculated onto a poly-D-lysine-coated cover glass to a density of from 1 to 1.5×10^4 cells/cm^2. This was allowed to stand still in a CO2 incubator (37° C., 5% CO2) and used in this test after a lapse of from 3 to 15 hours.
By recording whole cell patch clamp for the VR1 receptor-expressed HEK 293 cells under a voltage-clamped condition, the current response induced by topically applying capsaicin (1 μM) to the vicinity of the cells was measured. Test compounds were dissolved in an extracellular liquid and applied to a chamber by multi-barrel. Composition (mM) of the extracellular solution was set to NaCl 145, CsCl 5, CaCl2 1, MgCl2 1, HEPES 10 and glucose 10 [pH=7.3]. Composition (mM) of the intracellular solution was set to CsCl 120, MgCl2 2, HEPES 10, BAPTA 10, Na2 GTP 0.2, Mg ATP 4 and phosphorcreatine Na2 4 [pH=7.2]. By defining the current response of capsaicin in the absence of test compound as 100% and continuously applying each test compound starting from a lower concentration, inhibition rate at each concentration was measured. The IC50 value was calculated by nonlinear recursion from respective inhibition rate.

CN1C(=O)CCc2ccc(NC(=O)c3ccc(Cl)cc3NC3CCCC3)cc21.Cl [Example 1, 4-chloro-2-(cyclopentylamino)-N-(1-methyl-2-oxo-1,2,3,4-tetrahydroquinolin-7-yl)benzamide hydrochloride]
inhibition rate of paw-licking behavior expressing time (mouse (ddY, male)): 45%
pIC50 (human VR1 [1]): 7.92

CCC(CC)Nc1cc(Cl)ccc1C(=O)Nc1ccc2c(c1)N(C)C(=O)CC2 [Example 17]
inhibition rate of paw-licking behavior expressing time (mouse (ddY, male)): 54%
pIC50 (human VR1 [1]): 8.24

CN1C(=O)CCc2ccc(NC(=O)c3ccc(Cl)cc3N[C@H]3CCCC[C@@H]3N3CCCC3)cc21 [Example 54]
inhibition rate of paw-licking behavior expressing time (mouse (ddY, male)): 34%

CC1Oc2ccc(NC(=O)c3ccc(C(F)(F)F)cc3NC3CCCCC3)cc2NC1=O (stereo not drawn) [Example 73]
inhibition rate of paw-licking behavior expressing time (mouse (ddY, male)): 95%

O=C(Nc1ccc2c(c1)N(CCO)C(=O)CC2)c1ccc(C(F)(F)F)cc1NC1CCCCC1 [Example 105, 2-(cyclohexylamino)-N-[1-(2-hydroxyethyl)-2-oxo-1,2,3,4-tetrahydroquinolin-7-yl]-4-(trifluoromethyl)benzamide]
pIC50 (human VR1 [1]): 8.38

C[C@H]1Oc2ccc(NC(=O)c3ccc(Cl)cc3N[C@@H]3CCCC[C@@H]3N3CCCC3)cc2NC1=O [Example 106, 4-chloro-N-[(2R)-2-methyl-3-oxo-3,4-dihydro-2H-benzoxazin-6-yl]-2-{[(1R,2S)-2-pyrrolidin-1-ylcyclohexyl]amino}benzamide hydrochloride]
pIC50 (human VR1 [1]): 7.28

Cl.O=C1Cc2c(cc(NC(=O)c3ccc(C(F)(F)F)cc3N[C@H]3CCCC[C@@H]3N3CCCC3)cc2C(F)(F)F)N1 [Example 107, N-[2-oxo-4-(trifluoromethyl)-2,3-dihydro-1H-indol-6-yl]-2-{[(1S,2S)-2-pyrrolidin-1-ylcyclohexyl]amino}-4-(trifluoromethyl)benzamide hydrochloride]
inhibition rate of paw-licking behavior expressing time (mouse (ddY, male)): 53%
pain threshold for mechanical stimulus of the operation side leg (VFH test) (rat (SD, male)): completely restored the threshold value of the operation side leg to the threshold value range of the non-operation side leg
pIC50 (human VR1 [2]): 8.06
pIC50 (human VR1 [1]): 7.89

Cc1nc2cc(NC(=O)c3ccc(C(F)(F)F)cc3N[C@H]3CCCC[C@@H]3N(C)C)ccc2s1 [Example 108, 2-{[(1S,2S)-2-(dimethylamino)cyclohexyl]amino}-N-(2-methyl-1,3-benzothiazol-5-yl)-4-(trifluoromethyl)benzamide hydrochloride]
pIC50 (human VR1 [1]): 7.72

CN1C(=O)CCc2ccc(NC(=O)c3ccc(Cl)cc3NN3CCCCC3)cc21 [Example 119]
pIC50 (human VR1 [1]): 7.35

CN1C(=O)CCc2ccc(NC(=O)c3ccc(C(F)(F)F)cc3N[C@H]3CCCC[C@@H]3N3CCC(C)(C)C3)cc21 [Example 170]
pIC50 (human VR1 [1]): 8.59

CN1C(=O)CCc2ccc(NC(=O)c3ccc(C(F)(F)F)cc3NC3(CN4CCCC4)CCCCC3)cc21 [Example 173]
pIC50 (human VR1 [1]): 8.25

CN1C(=O)CCc2ccc(NC(=O)c3ccc(C(F)(F)F)cc3N[C@@H]3CCCC[C@H]3OCc3ccccc3)cc21 [Example 176]
pIC50 (human VR1 [1]): 8.05

CN1C(=O)CCc2ccc(NC(=O)c3ccc(C(F)(F)F)cc3Nc3cccnc3)cc21 [Example 178]
pIC50 (human VR1 [1]): 7.21

CC1(C)C(=O)Nc2cc(NC(=O)c3ccc(C(F)(F)F)cc3N[C@H]3CCCC[C@@H]3N3CCCC3)ccc21 [Example 248]
pIC50 (human VR1 [1]): 7.51

COCCNc1cc(C(F)(F)F)ccc1C(=O)Nc1ccc2sc(C)nc2c1 [Example 307]
pIC50 (human VR1 [1]): 8.01

Cc1nc2cc(NC(=O)c3ccc(C(F)(F)F)cc3NCc3ccncc3)ccc2s1 [Example 321]
inhibition rate of paw-licking behavior expressing time (mouse (ddY, male)): 67%
pIC50 (human VR1 [1]): 7.60

CC(C)CN1CCC(Nc2cc(C(F)(F)F)ccc2C(=O)Nc2ccc3c(c2)NC(=O)C3(C)C)CC1 [Example 327]
pIC50 (human VR1 [1]): 8.43

CCCCCN1CC[C@H](Nc2cc(C(F)(F)F)ccc2C(=O)Nc2ccc3c(c2)NC(=O)C3(C)C)C1 [Example 334]
inhibition rate of paw-licking behavior expressing time (mouse (ddY, male)): 58%
pIC50 (human VR1 [1]): 7.64

CCCCN1CCC(Nc2cc(C(F)(F)F)ccc2C(=O)Nc2ccc3c(c2)NC(=O)C3(C)C)CC1 [Example 335]
inhibition rate of paw-licking behavior expressing time (mouse (ddY, male)): 49%
pIC50 (human VR1 [1]): 7.06

O=C(Nc1ccc2cccnc2c1)c1ccc(C(F)(F)F)cc1N[C@H]1CCCC[C@H]1N1CCCC1 [Example 367]
pIC50 (human VR1 [1]): 7.82

O=C(Nc1ccc2cccnc2c1)c1ccc(C(F)(F)F)cc1N[C@H]1CCCC[C@@H]1N1CCCC1 [Example 386]
pIC50 (human VR1 [1]): 7.74

CN1C(=O)CCc2ccc(NC(=O)c3cc(Cl)cnc3NCC3CC3)cc21 [Example 400]
pIC50 (human VR1 [1]): 7.22
